In US6472416B1, “Sulfonylphenylpyrazole compounds useful as COX-2 inhibitors” (Abbott Laboratories, priority 1999, dated 2002):

Assays:
[1] = target: T1, recombinant human Cox-2 (r-hu Cox-2, PGHS-2) (Homo sapiens, UniProt P35354); test: Recombinant human PGHS-2 (r-hu Cox-2) enzyme assay, PGE2 by EIA; assay type: biochemical; conditions: read-out: r-hu COX2 percent inhibition
T1 construct: made in house; host or cells: baculovirus/Sf9 insect cells (microsomes)
T1 sequence (P35354 18-604): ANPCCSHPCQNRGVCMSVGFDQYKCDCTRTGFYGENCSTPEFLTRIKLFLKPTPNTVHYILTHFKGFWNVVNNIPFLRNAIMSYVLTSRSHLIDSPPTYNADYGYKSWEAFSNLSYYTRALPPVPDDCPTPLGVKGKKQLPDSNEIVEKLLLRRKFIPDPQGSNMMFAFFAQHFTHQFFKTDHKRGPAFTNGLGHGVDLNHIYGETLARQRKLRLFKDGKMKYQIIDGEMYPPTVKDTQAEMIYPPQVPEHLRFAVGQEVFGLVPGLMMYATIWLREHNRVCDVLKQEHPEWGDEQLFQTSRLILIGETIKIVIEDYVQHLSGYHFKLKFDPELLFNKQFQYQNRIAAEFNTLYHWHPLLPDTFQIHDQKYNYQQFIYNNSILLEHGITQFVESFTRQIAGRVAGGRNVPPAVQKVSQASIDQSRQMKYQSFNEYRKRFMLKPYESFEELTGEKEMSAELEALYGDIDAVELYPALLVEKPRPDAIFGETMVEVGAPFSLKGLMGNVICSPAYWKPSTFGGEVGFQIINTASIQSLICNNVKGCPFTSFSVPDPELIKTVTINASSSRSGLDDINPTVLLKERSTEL
Experimental: (§1) To compare the mean responses of the treatment groups, analysis of variance was applied. Percent inhibition values were determined by comparing the individual treatment mean values to the mean of the control group. Linear regression was used to estimate IC50's/ED50's in appropriate assays.
(§2) EIA reagents for prostaglandin determination were purchased from Perseptive Diagnostics, (Cambridge, Mass.). Prostaglandin E2 (PGE2) levels in lavage fluids were determined after the samples were dried under nitrogen and reconstituted with assay buffer. PGE2 levels in enzyme assays or cell culture media were measured against standards prepared in the same milieu. The immunoassays were conducted as recommended by the manufacturer. The EIA was conducted in 96 well microtiter plates (Nunc Roskilde, Denmark) and optical density was measured using a microplate reader (Vmax, Molecular Devices Corp., Menlo Park, Calif.).
(§3) Inhibition of prostaglandin biosynthesis in vitro was evaluated using recombinant human Cox-1 (r-hu Cox-1) and Cox-2 (r-hu Cox-2) enzyme assays. […] The reaction was allowed to run for 2.5 minutes at room temperature prior to quenching with HCl and neutralization with NaOH. PGE2 production in the presence and absence of the drug was determined by EIA analysis. The EIA was conducted in 96 well microtiter plates (Nunc Roskilde, Denmark) and optical density was measured using a microplate reader (Vmax, Molecular Devices Corp., Menlo Park, Calif.). EIA reagent for prostaglandin determination were purchased from Perseptive Diagnostics (Cambridge, Mass.). PGE2 levels were measured against standards prepared in the same milieu. The immunoassays were conducted as recommended by the manufacturer.
(§4) The compounds are designated by the Example Number. […] Values for Cox-2 inhibition that are parenthetical indicate IC50 values.

[2] = target: T2, recombinant human Cox-1 (r-hu Cox-1, PGHS-1) (Homo sapiens, UniProt P23219); test: Recombinant human PGHS-1 (r-hu Cox-1) enzyme assay, PGE2 by EIA; assay type: biochemical; conditions: at 100 μM; read-out: r-hu COX1 percent inhibition
T2 construct: made in house; host or cells: baculovirus/Sf9 insect cells (microsomes)
Experimental: as §1, §2, §3, §4

[3] = system: prostaglandin biosynthesis in vivo; test: Rat Carrageenan Pleural Inflammation (CIP) Model; conditions: 10 mg/kg oral, 30 minutes prior to intrapleural carrageenan, lavage four hours later
Experimental: For oral administration, test compounds were suspended on the day of use in 100% polyethyleneglycol (PEG 400) with a motorized homogenizer equipped with a Teflon-coated pestle (TRI-R Instrument, Jamaica, N.Y.).
as §1, §2
Pleural inflammation was induced in male adrenalectomized Sprague-Dawley rats following the method of Vinegar et al., Fed. Proc. 1976, 35, 2447-2456. […] Eicosanoids were determined by EIA as described above. […]

[4] = system: IL-1β induced PGE2 production in human amnionic WISH cells; test: IL-1β Induced PGE2 Production in WISH Cells; assay type: cell-based; conditions: Homo sapiens, IL-1β 18 hour, read-out: WISH percent inhibition
Experimental: as §2
Human amnionic WISH cells were grown to 80% confluence in 48 well plates. Following removal of the growth medium and two washings with Gey's Balanced Salt Solution, 5 ng IL-1β/ml (UBI, Lake Placid, N.Y.) was added to the cells with or without test compound in DMSO (0.01% v/v) in Neuman-Tytell Serumless Medium (GIBCO, Grand Island, N.Y.). Following an 18 hour incubation to allow for the maximal induction of PGHS-2, the conditioned medium was removed and assayed for PGE2 content by EIA anylysis as described above.
WISH cell values indicate percent inhibition at the particular dose level.

T2 sequence (P23219 24-599): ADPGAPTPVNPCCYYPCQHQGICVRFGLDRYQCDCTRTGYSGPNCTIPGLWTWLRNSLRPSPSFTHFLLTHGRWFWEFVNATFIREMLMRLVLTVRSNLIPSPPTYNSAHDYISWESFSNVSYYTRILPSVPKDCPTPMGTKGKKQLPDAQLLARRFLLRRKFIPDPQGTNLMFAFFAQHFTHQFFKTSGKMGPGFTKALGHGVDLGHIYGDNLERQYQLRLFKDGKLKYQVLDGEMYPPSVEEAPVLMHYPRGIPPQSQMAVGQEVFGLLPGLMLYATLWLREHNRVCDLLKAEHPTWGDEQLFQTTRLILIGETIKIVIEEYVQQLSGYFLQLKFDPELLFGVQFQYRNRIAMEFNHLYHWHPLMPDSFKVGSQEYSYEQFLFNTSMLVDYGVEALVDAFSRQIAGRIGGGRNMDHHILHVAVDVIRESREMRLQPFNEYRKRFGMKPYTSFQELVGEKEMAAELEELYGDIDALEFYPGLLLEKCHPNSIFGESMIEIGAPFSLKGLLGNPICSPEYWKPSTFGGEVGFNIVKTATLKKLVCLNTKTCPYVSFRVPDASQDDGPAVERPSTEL

Structure (SMILES) | inhibition at 0.1 µM ([1]; at 100 nM) | melting point | inhibition at 100 µM [2] | CIP Inh @ 10 mpk [3] | inhibition at 0.001 µM ([4]; at 1 (nM)) | inhibition at 10 µM ([1]; at 10000 nM) | inhibition at 0.0001 µM ([4]; at 0.1 (nM)) | inhibition at 10 pM ([4]; at 0.01 (nM))
CS(=O)(=O)c1ccc(-c2c(-c3ccc(F)cc3)c(OCC(=O)c3ccc(F)cc3)nn2CC(=O)c2ccc(F)cc2)cc1 [Example 13, 2-[4-(4-Fluorophenyl)-5-(4-(methylsulphonyl)phenyl)-3-(2-oxo-2-(4-fluorophenyl)ethoxy)-1H-pyrazol-1-yl]-1-(4-fluorophenyl)ethan-1-one] | 90% | 194 to 196 °C | 17% | 22% | – | – | – | –
CCn1nc(OC2COCCC2=O)c(-c2ccc(F)cc2)c1-c1ccc(S(C)(=O)=O)cc1 (stereo not drawn) [Example 23, 3-[(1-Ethyl-4-(4-fluorophenyl)-5-(4-(methylsulphonyl)phenyl)-1H-pyrazol-3-yl)oxy]tetrahydro-4H-pyran-4-one] | – | 181 to 182 °C | 27% | – | 80% | 43% | – | –
CC(C)(C)C(=O)COc1nn(CC=C(Cl)Cl)c(-c2ccc(S(C)(=O)=O)cc2)c1-c1ccc(F)cc1 [Example 26, 1-{[1-(3,3-Dichloroallyl)-4-(4-fluorophenyl)-5-(4-(methylsulphonyl)phenyl)-1H-pyrazol-3-yl]oxy}-3,3-dimethylbutan-2-one] | – | 156 to 158 °C | – | – | – | – | 64% | –
CS(=O)(=O)c1ccc(-c2c(-c3ccc(F)cc3)c(OCC(=O)c3ccccc3)nn2CC(=O)c2ccccc2)cc1 [Example 12, 2-[4-(4-Fluorophenyl)-5-(4-(methylsulphonyl)phenyl)-3-(2-oxo-2-phenylethoxy)-1H-pyrazol-1-yl]-1-phenylethan-1-one] | – | 151 to 152 °C | 0% | 38% | – | – | – | –
CC(=O)n1nc(OCC(=O)C(C)(C)C)c(-c2ccccc2)c1-c1ccc(S(C)(=O)=O)cc1 [Example 32, 1-[(1-Acetyl-5-(4-(methylsulphonyl)phenyl)-4-phenyl-1H-pyrazol-3-yl)oxy]-3,3-dimethylbutan-2-one] | – | 189 to 191 °C | – | – | – | – | – | 47%
